This passage reports Bliss excess results from the supplement of paper PMC11061612.

Holding throughout (assay): Bliss excess, mean over the matrix (fraction); higher = more synergy
Assay [1] concerns AN3-CA (Endometrial Carcinoma). The gist of the method: (§1)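 Bliss excess equals the observed combination effect minus the expected value EA + EB − EA·EB, where EA and EB are the effects of each agent alone. Combination Emax is the second-highest inhibition within the matrix. Inhibition was scaled from CellTiter-Glo 2.0 luminescence, with 0 set by vehicle wells and 1 by blank wells, after 72 hours of two-drug dosing of cells plated in 1536-well plates.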

The test system of assay [2] is BALL-1 (B-Lymphoblastic Leukemia). In short, it runs like this:
as §1

In assay [3] the test system is Becker (Low Grade Glioma). In short, it runs like this:
as §1

The subject of assay [4] is CML-T1 (Chronic Myelogenous Leukemia). The gist of the method:
as §1

The test system of assay [5] is Calu-6 (Non-Small Cell Lung Carcinoma). The gist of the method: as §1
In assay [6] the test system is Caov-3 (Ovarian Carcinoma). The gist of the method:
as §1

Assay [7] concerns EB-3 (Burkitt's Lymphoma). The gist of the method: as §1
For another assay, the system named is ES-2 (Ovarian Carcinoma). The gist of the method: as §1
Assay [8] has as its system FLO-1 (Esophageal Adenocarcinoma). The gist of the method: as §1
For assay [9], the system named is KYSE-70 (Esophageal Squamous Cell Carcinoma). The gist of the method:
as §1

In assay [10] the test system is LAMA-84 (Chronic Myelogenous Leukemia). The gist of the method: as §1
The subject of assay [11] is LOUCY (T-Lymphoblastic Leukemia). The gist of the method: as §1
Assay [12] concerns NCI-H1563 (Lung Adenocarcinoma). In short, it runs like this:
as §1

The test system of assay [13] is NCI-H1623 (Lung Adenocarcinoma). In short, it runs like this: as §1
In assay [14] the test system is NCI-H1755 (Lung Adenocarcinoma). In short, it runs like this: as §1
In assay [15] the test system is NCI-H196 (Small Cell Lung Carcinoma). In short, it runs like this: as §1
In assay [16] the test system is NCI-H810 (Non-Small Cell Lung Carcinoma). The gist of the method: as §1
The test system of assay [17] is RERF-LC-KJ (Lung Adenocarcinoma). In short, it runs like this: as §1
Assay [18] deals with SJRH30 (Rhabdomyosarcoma). In short, it runs like this: as §1
The subject of assay [19] is SW684 (Other Solid Carcinomas). The gist of the method:
as §1

As to `Cc1c2c(nn1C)CSCc1cc(n(C)n1)CSc1cc(c3ccccc3c1)OCCCc1c(C(=O)O)n(C)c3c-2c(Cl)ccc13` [AZD5991] + CCN(CCO)CCCOc1ccc2c(Nc3cc(CC(=O)Nc4cccc(F)c4)[nH]n3)ncnc2c1 [AZD2811] (first compound max 1 µM, 7x7, partner max 1 µM), the Bliss excess was 0.0922 in assay [1]; 0.213 in [2]; -0.0165 in [3]; 0.0645 in assay [4]; -0.0096 in assay [5]; 0.0236 in [6]. The Bliss excess in assay [7] is -0.0197; in the assay with ES-2 (Ovarian Carcinoma) it was -0.0298; in assay [8], 0.0347; in assay [9] it was 0.0651; in [10], 0.128; in assay [11] it was -0.0389. Besides, the Bliss excess in assay [12] is -0.0248; in assay [13], 0.0711; in assay [14], 0.0561; in [15], -0.029; in [16] it was 0.114; in [17] it was 0.0402. Moreover, the figures for the Bliss excess in assay [18] and in assay [19] were 0.0922 and -0.069, respectively.

In the case of `Cc1c2c(nn1C)CSCc1cc(n(C)n1)CSc1cc(c3ccccc3c1)OCCCc1c(C(=O)O)n(C)c3c-2c(Cl)ccc13` [AZD5991] + CN(C)CCCOc1ccc(-c2ccc3ncc4c(c3c2)n(C2CCOCC2)c(=O)n4C)cn1 [AZD0156] (first compound max 1 µM, 7x7, partner max 1 µM), the Bliss excess is -0.0338 in [1]; 0.0361 in [2]; -0.0128 in assay [3]; 0.0208 in assay [4]; 0.0052 in [5]; 0.0036 in assay [6]. The Bliss excess in assay [7] is -0.0005; with ES-2 (Ovarian Carcinoma), 0.0018; in [8] it was -0.0135; in assay [9] it was 0.0286; in [10], -0.0051; in assay [11], 0.0428. Moreover, the Bliss excess in assay [12] is -0.009; in assay [13], -0.015; in [14], -0.0214; in assay [15] it was -0.0207; in [16], -0.0034; in assay [17], -0.0296. Besides, the Bliss excess was 0.0026 in [18] and -0.0222 in assay [19].

Take `Cc1c2c(nn1C)CSCc1cc(n(C)n1)CSc1cc(c3ccccc3c1)OCCCc1c(C(=O)O)n(C)c3c-2c(Cl)ccc13` [AZD5991] + C[C@@H]1COCCN1C2=NC(=NC(=C2)C3(CC3)[S@](=N)(=O)C)C4=C5C=CNC5=NC=C4 [AZD6738] (first compound max 1 µM, 7x7, partner max 10 µM): the Bliss excess in assay [1] was 0.0454; in assay [2], 0.0406; in [3], 0.0152; in assay [4], -0.012; in assay [5], 0.0282; in [6] it was 0.0293. The Bliss excess in [7] is 0.0209; with ES-2 (Ovarian Carcinoma), 0.0424; in assay [8], -0.0301; in [9] it was 0.0485; in [10] it was -0.0056; in assay [11], -0.0398. The Bliss excess in assay [12] was 0.0224; in [13], 0.0581; in assay [14] it was -0.0171; in [15] it was 0.0443; in assay [16], 0.0552; in assay [17], 0.0331. Also, the Bliss excess in assay [18] was determined as 0.0225; in [19], 0.0472.

In the case of `Cc1c2c(nn1C)CSCc1cc(n(C)n1)CSc1cc(c3ccccc3c1)OCCCc1c(C(=O)O)n(C)c3c-2c(Cl)ccc13` [AZD5991] + C[C@@H](Nc1cc(F)cc(F)c1)c1cc(C(=O)N(C)C)cc2c(=O)cc(N3CCOCC3)oc12 [AZD8186] (first compound max 1 µM, 7x7, partner max 3 µM), the Bliss excess was 0.0606 in assay [1]; -0.0163 in [2]; 0.0192 in assay [3]; -0.0081 in assay [4]; -0.0018 in assay [5]; 0.0338 in assay [6]. For the same compound, the Bliss excess in assay [7] is -0.0275; in the assay with ES-2 (Ovarian Carcinoma), -0.0108; in assay [8], -0.0486; in [9], -0.0136; in assay [10] it was -0.0037; in assay [11], -0.0772. Besides, the Bliss excess was 0.0003 in assay [12]; -0.0133 in [13]; 0.0317 in assay [14]; -0.0353 in assay [15]; -0.034 in assay [16]; 0.0598 in assay [17]. Besides, the Bliss excess was -0.0138 in assay [18] and -0.0553 in assay [19].

For `Cc1c2c(nn1C)CSCc1cc(n(C)n1)CSc1cc(c3ccccc3c1)OCCCc1c(C(=O)O)n(C)c3c-2c(Cl)ccc13` [AZD5991] + Cc1cc2ncnn2cc1Nc1ncc2c(n1)n(C1CCOCC1)c(=O)n2C [AZD7648] (first compound max 1 µM, 7x7, partner max 10 µM), the Bliss excess was -0.0411 in assay [1]; -0.0064 in assay [2]; 0.0005 in assay [3]; -0.0205 in assay [4]; -0.0338 in assay [5]; -0.0436 in assay [6]. In addition, the Bliss excess in [7] is -0.0379; in the assay on ES-2 (Ovarian Carcinoma) it was -0.0545; in assay [8], -0.0408; in assay [9], 0.0024; in [10], -0.01; in assay [11] it was -0.0479. The Bliss excess in assay [12] is -0.0185; in assay [13] it was 0.0374; in assay [14] it was 0.0189; in assay [15] it was -0.0431; in [16] it was -0.0484; in assay [17], 0.0171. For the same compound, the Bliss excess in assay [18] is -0.0214; in [19] it was -0.0222.

For `Cc1c2c(nn1C)CSCc1cc(n(C)n1)CSc1cc(c3ccccc3c1)OCCCc1c(C(=O)O)n(C)c3c-2c(Cl)ccc13` [AZD5991] + Cn1cnc2c(F)c(Nc3ccc(Br)cc3Cl)c(C(=O)NOCCO)cc21 [Selumetinib] (first compound max 1 µM, 7x7, partner max 3 µM), the Bliss excess is 0.0158 in assay [1]; -0.0064 in [2]; -0.0092 in assay [3]; 0.0516 in assay [4]; 0.0572 in assay [5]; 0.0536 in assay [6]. The Bliss excess in [7] was -0.0424; in the assay on ES-2 (Ovarian Carcinoma), 0.0389; in assay [8] it was -0.055; in assay [9], 0.0244; in assay [10], 0.102; in [11], 0.0129. The Bliss excess in assay [12] was 0.0158; in assay [13] it was 0.0184; in assay [14] it was 0.0427; in [15], -0.0374; in [16] it was -0.0133; in assay [17], 0.0466. Besides, the results for the Bliss excess in [18] and in assay [19] were 0.0386 and -0.0091, respectively.
